Test: Comparison of salt forms (solubility, stability)
Type: physicochemical

stability of salt forms (comparison): less stable than the other salt forms
SMILES: Cc1cc(F)ccc1-c1nc(NC(CO)CO)nc2c1ccc(=O)n2-c1c(F)cccc1F [sulphate, 8-(2,6-difluorophenyl)-4-(4-fluoro-2-methylphenyl)-2-{[2-hydroxy-1-(hydroxymethyl)ethyl]amino}pyrido[2,3-d]pyrimidin-7(8H)-one]
